Source: US20040029208A1, “Assay method and kit for testing biological material for exposure to stress using biomarkers” (priority 2000, published 2004)

Key:
[1] = tested on: Centauréa cýanus; assay: TLC plant biomarker pattern after herbicide spraying (greenhouse); assay type: in vivo
[2] = tested on: white birch seedlings; details: within 24h of application, even at 1% of field rate; cited from earlier work
[3] = tested on: Lólium perénne; assay: TLC plant biomarker pattern after herbicide spraying (greenhouse); assay type: in vivo; details: Roundup Bio; Lólium perénne
Experimental: (§1) The experiments were performed in the green-house at the National Environmental Research Institute, Silkeborg, Denmark. All the seeds needed light to germinate, and were sown at the soil surface in individual 11 cm pots. The soil used during the experiments contained: (SM Growing Mould (Growing medium by special soil (sphagnum) added clay granulate), 0-30 mm; grade of turnover 55-75; added per m^3: 3 kg lime (white chalk), 1.5 kg dolit chalk, 40 kg clay granulate; Fertilizer added granulate: NO3-N: 55.0 g; NH4-N: 65.0 g; P: 106.6 g; K: 224.0 g; Mg: 22 g; Micro nutrients added in chelate form, Mo in uorganic form: B-Boron: 1 g; Cu-copper: 6 g; Mn-Manganese: 3 g; Zinc-Zn: 3 g: Fe-iron: 6 g; Mo- molybdenum: 1.4 g).
(§2) During the experiments plants were watered from below, and the temperature in the green-house was maintained between 15° C. and 25° C. with variations due to external weather, and the photoperiod was 16th daylight. The green-house is divided into different units, which allowed for the separate maintenance of the control plants from the sprayed plants to avoid undesirable effects due to vapour drift.
(§3) Glyphosate (Roundup Bio (360 g L^−1) was supplied by Monsanto Denmark A/S. Recommended field dose=1,44 kg a.i. ha^−1. In all the experiments, an automatic sprayer (designed in Denmark by Jens Kristensen 1994) was used where the herbicide application is achieved by moving boom equipment with two ordinary hydraulic flat fan nozzles (Hardi 4110-16). Two pots per spray event were placed in the middle of the spray chamber at 50 cm distance from the nozzle, delivering 200 L of water per-hectare with a desired herbicide concentration (working pressure 2 bars; speed of spray boom=4.7 km h^−1). The spraying was performed starting with the lowest concentration first, progressing towards the highest concentration. Between each herbicide, the sprayer was thoroughly rinsed several times with water. The control plants were sprayed with water.
(§4) The fresh plant material was pressed using a hand press. The extract was immediately centrifuged. (3000 rpm) for 10 minutes. The supernatant was used for analysis. The extracts were kept cool or right above 0° C. during the test to avoid decomposition of biomarkers.
(§5) Freeze-dried plant material was crushed and 250 mg was extracted with 5.00 ml 75% ethanol in an ultrasonic bath for 2 hours. The temperature was kept <0° C. (using ice) during the extraction to avoid decomposition of biomarkers. The extract was centrifuged (3000 rpm) for 10 minutes. The supematant was used for analysis and were kept cool during the test to avoid decomposition of biomarkers.
(§6) The two extracts (freshtfresh ethanol) were applicated immediately on a TLC plate (10 μl on both TLC-Plate types (see below) using cool air-drying. The 75% ethanolic extract was applicated 10 μl on Silica-gel TLC-plates and 5 μl on Cellulose TLC-plates (see below). The fresh/fresh ethanolic extractsare recommended to perform if fresh plant material are to be analysed (field-test). The freeze-dried or frozen plant material extraction Is recommended if the analysis are performed in the laboratory.
(§7) TLC-System 1: HPTLC-Alufolie Silica Gel 60 F254, Merck 1.05548 (10×10 cm); 10 μl plant extracts plants exposed to glyphosate and control plants; eluted in n-butanol acetic acid: water (4:1:5) (upper phase after 5 minutes shaking). Derivatisation: Stock solution 1:50% sulfuric acid in 96% ethanol; Stock solution 2: 2% vanillin in absolut alcohol; Derivatisation-solvent, Fresh produced before us, stock solution 1 and stock solution 2 (1:10); Aftercare: 120° C. in 2-3 min. The plate is valuated visually. The system detects higher alcoholics, phenolic compounds, steroids and etheric oils (Stahl 1969), terpenoids, phenyl propanolds, phenolic compounds (Wagner etea. 1984) […]

[4] = tested on: Plantágo lanceoláta; assay: as above; assay type: in vivo
Experimental: as §1, §2, §3, §4, §5, §6, §7

[5] = tested on: tobacco cell cultures; details: two cell lines, in the presence of glyphosate; cited from earlier work
[6] = tested on: Anagallis arvensis; assay: TLC plant biomarker pattern after herbicide spraying (greenhouse); assay type: in vivo
Experimental: as §1, §2, §3, §4, §5, §6
[…] Derivatisation: Stock solution 1:50% sulfuric acid in 96% ethanol; Stock solution 2: 2% vanillin in absolut alcohol; Derivatisation-solvent, Fresh produced before us, stock solution 1 and stock solution 2 (1:10); Aftercare: 120° C. in 2-3 min. The plate is valuated visually. The system detects higher alcoholics, phenolic compounds, steroids and etheric oils (Stahl 1969), terpenoids, phenyl propanolds, phenolic compounds (Wagner etea. 1984)
TLC-System 7: HPTLC-Alufolie Silica Gel 60 F2u, Merck 1.05548 (10×10 cm); 10 μl plant extracts plants exposed to glyphosate and control plants; eluted in n-butanol: acetic acid: water (4:1:5) (upper phase after 5 minutes shaking). Derivatisation: 0,5 g p-anisaldehyde diluted in 10 ml conc. acetic acid and 85 ml absolute alcohol is and 5 ml conc. sulfuric acid (added in the following row). The plate is heated to. […]

[7] = tested on: Lólium perénne; assay: Visual effect rating (0-9) after herbicide spraying; assay type: in vivo; details: Roundup Bio, Lólium perénne
Text: (§8) Four, eight, sixteen and thirty two days after spraying, visual effects on plants were noted before harvest, using the rating chart described in Hamil. et al. (1977) and Boutin et al. (1993); a rating of zero indicates full growth and vigour, and a rating of nine indicates no growth/mortality.
(§9) The min. visual effect (VE) of the presence of plant biomarkers is rated as described by Hamil et al., (1977) and Boutin et al. (1993).

[8] = tested on: Plantágo lanceoláta; assay: as above; assay type: in vivo
Text: as §8, §9

[9] = tested on: Centauréa cýanus; assay: as above; assay type: in vivo
Text: as §8, §9

[10] = tested on: Anagallis arvensis; assay: as above; assay type: in vivo; details: Roundup Bio, Anagallis arvensis
Text: as §8, §9

## O=C(O)CNCP(=O)(O)O [Glyphosate]
[1]; TLC 1 (non-specific compounds)
  Min. of label dose of herbicide with effect: 10%
[1]; TLC 6 (lipids and terpens)
  Min. of label dose of herbicide with effect: 10%
[1]; TLC 7 (non-specific compounds)
  Min. of label dose of herbicide with effect: 10%
[2]
  increase of shikimic acid levels: 10 fold
[3]
  LC: lowest dose of concentration of the herbicide with phytochemical changes in all the TLC-Systems: 1% of field dose
[4]; Roundup Bio, Plantágo lanceoláta
  LC: lowest dose of concentration of the herbicide with phytochemical changes in all the TLC-Systems: 1% of field dose
[4]; TLC 1 (non-specific compounds)
  Min. of label dose of herbicide with effect: 1%
[4]; TLC 2 (phenolic compounds)
  Min. of label dose of herbicide with effect: 1%
[4]; TLC 6 (lipids and terpens)
  Min. of label dose of herbicide with effect: 1%
[4]; TLC 7 (non-specific compounds)
  Min. of label dose of herbicide with effect: 1%
[4]; TLC 4d (amino acids)
  Min. of label dose of herbicide with effect: 1%
[5]
  increase of levels of free shikimic acid: more than 300 fold
[6]; Roundup Bio, Anagallis arvensis
  LC: lowest dose of concentration of the herbicide with phytochemical changes in all the TLC-Systems: 1% of field dose
[6]; TLC 1 (non-specific compounds)
  Min. of label dose of herbicide with effect: 1%
[6]; TLC 6 (lipids and terpens)
  Min. of label dose of herbicide with effect: 1%
[6]; TLC 4d (amino acids)
  Min. of label dose of herbicide with effect: 1%
[7]
  VE: corresponding visual effect: 0
[8]; at presence of TLC 1 biomarker
  Min. visual effect: 0
[8]; at presence of TLC 6 biomarker
  Min. visual effect: 4
[9]; at presence of TLC 1 biomarker
  Min. visual effect: 3
[9]; at presence of TLC 6 biomarker
  Min. visual effect: 3
[9]; at presence of TLC 7 biomarker
  Min. visual effect: 3
[10]
  VE: corresponding visual effect: 0
